Laboratory results: PubChem BioAssay (NCI)
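How tested: cells in 96-well plates exposed to compound for 48 hours at five concentrations. At the GI50, growth is halved. TGI denotes the concentration required for complete inhibition of growth.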

Experiments:
Experiment in all cases: inhibition of tumour cell growth, NCI panel, 48 h
[1] = tested on: EKVX NSCLC
[2] = tested on: MDA-MB-231 breast
[3] = tested on: HCT-116 colon
[4] = tested on: NCI/ADR-RES ovarian
[5] = tested on: SW-620 colon
[6] = tested on: SK-OV-3 ovarian
[7] = tested on: MOLT-4 leukemia
[8] = tested on: MCF7 breast
[9] = tested on: 786-0 renal
[10] = tested on: A498 renal
[11] = tested on: UACC-62 melanoma
[12] = tested on: OVCAR-4 ovarian
[13] = tested on: T-47D breast
[14] = tested on: M14 melanoma
[15] = tested on: HL-60(TB) leukemia
[16] = tested on: OVCAR-3 ovarian
[17] = tested on: KM12 colon
[18] = tested on: NCI-H460 lung
[19] = tested on: HT29 colon
[20] = tested on: SK-MEL-2 melanoma
[21] = tested on: UACC-257 melanoma
[22] = tested on: HCC-2998 colon
[23] = tested on: HOP-92 NSCLC
[24] = tested on: BT-549 breast
[25] = tested on: U251 CNS
[26] = tested on: MDA-MB-435
[27] = tested on: SN12C renal
[28] = tested on: SK-MEL-5 melanoma
[29] = tested on: A549 NSCLC
[30] = tested on: COLO 205 colon
[31] = tested on: K-562 leukemia
[32] = tested on: OVCAR-5 ovarian
[33] = tested on: SF-295 CNS
[34] = tested on: HCT-15 colon
[35] = tested on: SNB-75 CNS
[36] = tested on: SF-268 CNS
[37] = tested on: HOP-62 NSCLC
[38] = tested on: IGROV1 ovarian
[39] = tested on: PC-3 prostate
[40] = tested on: UO-31 renal
[41] = tested on: DU-145 prostate
[42] = tested on: ACHN renal
[43] = tested on: CAKI-1 renal
[44] = tested on: NCI-H522 lung
[45] = tested on: TK-10 renal
[46] = tested on: RXF 393 renal
[47] = tested on: NCI-H23 lung
[48] = tested on: SF-539 CNS
[49] = tested on: SNB-19 CNS
[50] = tested on: MALME-3M melanoma
[51] = tested on: LOX IMVI melanoma
[52] = tested on: OVCAR-8 ovarian
[53] = tested on: SK-MEL-28 melanoma

CCC[CH2][Sn]([CH2]CCC)([CH2]CCC)[O]c1ccc(Cl)cc1Cl
GI50 [1]: 94.8 nM | TGI [1]: 302 nM | GI50 [2]: 122 nM | TGI [2]: 284 nM | GI50 [3]: 95.2 nM | TGI [3]: 231 nM | GI50 [4]: 141 nM | TGI [4]: 312 nM | GI50 [5]: 131 nM | TGI [5]: 279 nM | GI50 [6]: 137 nM | TGI [6]: 276 nM | GI50 [7]: 165 nM | TGI [7]: 2770 nM | GI50 [8]: 125 nM | TGI [8]: 255 nM | GI50 [9]: 135 nM | TGI [9]: 266 nM | GI50 [10]: 56.5 nM | TGI [10]: 210 nM | GI50 [11]: 162 nM | TGI [11]: 357 nM | GI50 [12]: 114 nM | TGI [12]: 236 nM | GI50 [13]: 128 nM | TGI [13]: 307 nM | GI50 [14]: 143 nM | TGI [14]: 284 nM | GI50 [15]: 129 nM | TGI [15]: 415 nM | GI50 [16]: 128 nM | TGI [16]: 259 nM | GI50 [17]: 93.9 nM | TGI [17]: 244 nM | GI50 [18]: 97.7 nM | TGI [18]: 250 nM | GI50 [19]: 118 nM | TGI [19]: 293 nM | GI50 [20]: 152 nM | TGI [20]: 295 nM | GI50 [21]: 154 nM | TGI [21]: 305 nM | GI50 [22]: 94.9 nM | TGI [22]: 226 nM | GI50 [23]: 73.3 nM | TGI [23]: 384 nM | GI50 [24]: 154 nM | TGI [24]: 315 nM | GI50 [25]: 146 nM | TGI [25]: 297 nM | GI50 [26]: 139 nM | TGI [26]: 290 nM | GI50 [27]: 142 nM | TGI [27]: 303 nM | GI50 [28]: 138 nM | TGI [28]: 270 nM | GI50 [29]: 159 nM | TGI [29]: 345 nM | GI50 [30]: 160 nM | TGI [30]: 310 nM | GI50 [31]: 120 nM | TGI [31]: 408 nM | GI50 [32]: 140 nM | TGI [32]: 298 nM | GI50 [33]: 150 nM | TGI [33]: 307 nM | GI50 [34]: 156 nM | TGI [34]: 333 nM | GI50 [35]: 152 nM | TGI [35]: 445 nM | GI50 [36]: 128 nM | TGI [36]: 301 nM | GI50 [37]: 146 nM | TGI [37]: 294 nM | GI50 [38]: 83 nM | TGI [38]: 223 nM | GI50 [39]: 150 nM | TGI [39]: 443 nM | GI50 [40]: 57.2 nM | TGI [40]: 203 nM | GI50 [41]: 130 nM | TGI [41]: 271 nM | GI50 [42]: 155 nM | TGI [42]: 291 nM | GI50 [43]: 87.8 nM | TGI [43]: 258 nM | GI50 [44]: 149 nM | TGI [44]: 297 nM | GI50 [45]: 215 nM | TGI [45]: 610 nM | GI50 [46]: 142 nM | TGI [46]: 296 nM | GI50 [47]: 109 nM | TGI [47]: 321 nM | GI50 [48]: 179 nM | TGI [48]: 372 nM | GI50 [49]: 175 nM | TGI [49]: 344 nM | GI50 [50]: 97.3 nM | TGI [50]: 238 nM | GI50 [51]: 111 nM | TGI [51]: 253 nM | GI50 [52]: 163 nM | TGI [52]: 354 nM | GI50 [53]: 162 nM | TGI [53]: 302 nM
